Data from patent US6569832B1, “Inhibition of beta cell degeneration” (Novo Nordisk A/S, priority 1999, dated 2003).

Assays:
beta-cells [1] = assay: beta-cell proliferation rate (BrDU incorporation) in pancreas of treated ZDF rats; format: in vivo, male Zucker Diabetic Fatty fa/fa (ZDF) rat
Source text: (§1) The male Zucker Diabetic Fatty fa/fa (ZDF) rat is a model of Type 2 diabetes. The rats are insulin resistant but normoglycemic from birth and they develop diabetes from about week 7 to week 10 of age. During the transitional period, the animals go through a state of impaired glucose tolerance. Although the animals are hyperinsulinemic before diabetes onset and during the early stages of diabetes, they later lose glucose-stimulated insulin secretion and finally become almost completely insulinopenic.
We have studied the effects of Arg^34, Lys^26(N-ε-(γ-Glu(N-α-hexadecanoyl)))-GLP-1(7-37) therapy during a period of time when the animals would normally progress from having impaired glucose tolerance to having overt Type 2 diabetes. Three groups of male ZDF rats (Genetic Models Inc, Indianapolis, Ind., USA) were studied and dosed subcutaneously bi-daily with either vehicle (group A), 30 (group B) or 150 μg/kg (group C) of Arg^34, Lys^26(N-ε-(γ-Glu(N-α-hexadecanoyl)))-GLP-1(7-37), n=6 per group. Animals were between 7 and 8 weeks old when dosing was initiated, and fed glucose levels were not different between the groups before dosing began.
Bromodeoxyuridine (BrDU) is incorporated in newly synthesized DNA and thus will label replicating cells. Six hours before sacrifice the rats were given an injection of 100 mg BrDU/kg intraperitoneally. […]

beta-cells [2] = assay: volume fraction of beta-cells related to total pancreas volume in treated ZDF rats (point counting stereology); format: in vivo, male Zucker Diabetic Fatty fa/fa (ZDF) rat
Source text: as §1
We have studied the effects of Arg^34, Lys^26(N-ε-(γ-Glu(N-α-hexadecanoyl)))-GLP-1(7-37) therapy during a period of time when the animals would normally progress from having impaired glucose tolerance to having overt Type 2 diabetes. […]
Neighbor sections were stained for insulin and the combination of glucagon-somatostatin-pancreatic polypeptide for the measurement of the relative mass of islet beta-cells and nonbeta-cells. […] The nonbeta-cells were stained with a mixture of monoclonal mouse anti-glucagon+rabbit anti-somatostatin+rabbit anti-pancreatic polypeptide, detected by biotinylated swine anti-multible Ig's, avidin peroxidase, and developed with DAB and CuSO4 to give a dark brown stain. […]

neonatal rat islet cells = assay: cytokine-induced apoptosis in neonatal rat islet cells (annexin V-FITC/PI flow cytometry); format: cell-based
Method: Neonatal rats were sacrificed and pancreata were aseptically isolated. Islets of Langerhans were isolated by standard techniques. Intact islets were cultured in 6-well tissue culture plates at 750 islets/well (Nunc, Roskilde, Denmark) with or without 40 U/ml recombinant rat interleukin 1, 100 U/ml interferon-γ, and 100 U/ml tumor necrosis factor-α (all from Peprotech, London, UK) and the indicated doses of the GLP-1 derivative, Arg^34, Lys^26(N-ε-(γ-Glu(N-α-hexadecanoyl)))-GLP-1(7-37). After 24 hours of in vitro culture, single cell suspensions were obtained from the islets by gentle triturating in trypsin. After 2 rounds of washing, islet cells were reacted with annexin V-FITC and propedium iodide (PI) using a commercial staining kit according to the manufactures recommendations (Pharmingen, San Diego, Calif., USA). At the end of incubation the samples were analyzed by flow cytometry using a FACScalibur (Becton Dickinson, Mountain View, Calif., USA). Dead cells were excluded by gating on PI-negative cells, 25000 viable cells were acquired per sample. Data were analyzed using the CellQuest software (Becton Dickinson).

Arg^34, Lys^26(N-ε-(γ-Glu(N-α-hexadecanoyl)))-GLP-1(7-37)
beta-cell proliferation at the dose where volume of beta-cells increased (beta-cells [1]; 30 ng/g): proliferation was not seen
fraction of beta-cells that had incorporated BrDU (percentage of BrDU positive beta-cells) (beta-cells [1]; subcutaneously bi-daily 30 or 150 μg/kg vs vehicle, n=6 per group, BrDU 6 hours before sacrifice): dose dependent increase
beta-cell fraction of the total pancreas compared to vehicle treated rats (beta-cells [2]; 30 ng/g for 6 weeks): significantly higher
beta-cell fraction of the total pancreas, further increase over the 30 ng/g dose (beta-cells [2]; 150 ng/g): no further increase
reduction in the cytokine-induced apoptosis (neonatal rat islet cells; 100 nM, 24 hours with interleukin 1 40 U/ml, interferon-γ 100 U/ml, tumor necrosis factor-α 100 U/ml): approximately 50%
block of cytokine-induced apoptosis in islet cells ex vivo (neonatal rat islet cells; 24 hour incubation with cytokine mix): able to block
effect of the compound itself on the level of islet cell apoptosis (neonatal rat islet cells; without cytokine mix, 24 hours): no effect
